From patent publication US4396543A
In brackets after ≈: the same amount, converted by molar mass. Several values for one entry are separate records, joined by “and”; a condition that tells them apart may be missing. Identical values can stand only once.

Legend:
Streptococcus pyogenes = assay: in vivo experimental bacterial infection, ED50; settings: mice; for ED50 Values Streptococcus pyogenes Oral: two doses orally; for ED50 Values Streptococcus pyogenes Subcutaneous: two doses subcutaneously, two values = two experiments
toxicity test, LD50 = settings: mouse, in vivo, iv; administered intravenously; read-out: LD50 (mg/kg) in Mice
Staphylococcus aureus = assay: in vivo experimental bacterial infection, ED50; settings: mice, two doses subcutaneously; two values = two experiments
[1] = test system: Staphylococcus epidermidis EPI1; assay type: cell-based; settings: two values = two experiments, 2 median of five, 19 median of three
[2] = test system: Staphylococcus aureus X400; assay: agar-dilution MIC; assay type: cell-based; settings: Staphylococcus aureus X400, methicillin-resistant strain; two values = two experiments; 2 median of five, 19 median of three
Procedure: (§1) In Table VII activity is measured by the minimal inhibitory concentration (MIC), i.e. the lowest concentration of compound at which growth of the microorganism is inhibited by the test compound.

[3] = test system: Streptococcus pyogenes C203; assay: agar-dilution MIC; assay type: cell-based; settings: two values = two experiments, 2 median of five, 19 median of three
[4] = test system: Streptococcus pneumoniae Park I; assay type: cell-based; settings: two values = two experiments, 2 median of five, 19 median of three
Procedure: as §1

[5] = test system: Staphylococcus aureus X1.1; assay: agar-dilution MIC; assay type: cell-based; settings: two values = two experiments, 2 median of five, 19 median of three experiments
Procedure: as §1

[6] = test system: Streptococcus Group D X66; assay: agar-dilution MIC; assay type: cell-based; settings: two values = two experiments, 2 median of five, 19 median of three
Procedure: as §1

[7] = test system: Streptococcus Group D 9960; assay: agar-dilution MIC; assay type: cell-based; settings: two values = two experiments, 2 median of five, 19 median of three
Procedure: as §1

[8] = test system: Staphylococcus epidermidis EPI2; assay: agar-dilution MIC; assay type: cell-based; settings: two values = two experiments, 2 median of five, 19 median of three
[9] = test system: Staphylococcus aureus V41; assay: agar-dilution MIC; assay type: cell-based; settings: Staphylococcus aureus V41, penicillin-resistant strain; two values = two experiments; 2 median of five, 19 median of three
Procedure: as §1

| SMILES | ED50 Values Streptococcus pyogenes Oral (Streptococcus pyogenes) | ED50 Values Streptococcus pyogenes Subcutaneous (Streptococcus pyogenes) | LD50 (toxicity test, LD50) | ED50 Values Staphylococcus aureus Subcutaneous (Staphylococcus aureus) | MIC [1] | MIC [2] | MIC [3] | MIC [4] | MIC [5] | MIC [6] | MIC [7] | MIC [8] | MIC [9] |
| --- | --- | --- | --- | --- | --- | --- | --- | --- | --- | --- | --- | --- | --- |
| CCCCCCC(=O)NCCCCCCCCCCC(=O)N[C@@H](Cc1c[nH]c2ccccc12)C(=O)N[C@H](CC(N)=O)C(=O)N[C@@H](CC(=O)O)C(=O)N[C@@H]1C(=O)NCC(=O)N[C@@H](CCCN)C(=O)N[C@@H](CC(=O)O)C(=O)N[C@H](C)C(=O)N[C@@H](CC(=O)O)C(=O)NCC(=O)N[C@H](CO)C(=O)N[C@@H]([C@H](C)CC(=O)O)C(=O)N[C@@H](CC(=O)c2ccccc2N)C(=O)O[C@@H]1C [Compound 14] | > 200 mg/kg × 2 | > 9 mg/kg × 2 | > 600 mg/kg | > 18 mg/kg × 2 | 8 µg/mL (≈ 4.54 µM) | 8 µg/mL (≈ 4.54 µM) | 2 µg/mL (≈ 1.14 µM) | 8 µg/mL (≈ 4.54 µM) | 4 µg/mL (≈ 2.27 µM) | > 128 µg/mL | 64 µg/mL (≈ 36.3 µM) | 8 µg/mL (≈ 4.54 µM) | 4 µg/mL (≈ 2.27 µM) |
| CCCCCCCCCCCC(=O)Nc1cccc(C(=O)N[C@@H](Cc2c[nH]c3ccccc23)C(=O)N[C@H](CC(N)=O)C(=O)N[C@@H](CC(=O)O)C(=O)N[C@@H]2C(=O)NCC(=O)N[C@@H](CCCN)C(=O)N[C@@H](CC(=O)O)C(=O)N[C@H](C)C(=O)N[C@@H](CC(=O)O)C(=O)NCC(=O)N[C@H](CO)C(=O)N[C@@H]([C@H](C)CC(=O)O)C(=O)N[C@@H](CC(=O)c3ccccc3N)C(=O)O[C@@H]2C)c1 [Compound 5] | > 200 mg/kg × 2 | > 0.25 mg/kg × 2 and 0.46 mg/kg × 2 | 277 mg/kg | 1.67 mg/kg × 2 | 2 µg/mL (≈ 1.13 µM) | 1 µg/mL (≈ 0.566 µM) | 0.25 µg/mL (≈ 0.141 µM) | 0.25 µg/mL (≈ 0.141 µM) | 0.5 µg/mL (≈ 0.283 µM) | 4 µg/mL (≈ 2.26 µM) | 1 µg/mL (≈ 0.566 µM) | 1 µg/mL (≈ 0.566 µM) | 0.5 µg/mL (≈ 0.283 µM) |
| CCCCCCCCC(=O)N[C@@H](Cc1ccccc1)C(=O)N[C@@H](Cc1c[nH]c2ccccc12)C(=O)N[C@H](CC(N)=O)C(=O)N[C@@H](CC(=O)O)C(=O)N[C@@H]1C(=O)NCC(=O)N[C@@H](CCCN)C(=O)N[C@@H](CC(=O)O)C(=O)N[C@H](C)C(=O)N[C@@H](CC(=O)O)C(=O)NCC(=O)N[C@H](CO)C(=O)N[C@@H]([C@H](C)CC(=O)O)C(=O)N[C@@H](CC(=O)c2ccccc2N)C(=O)O[C@@H]1C [Compound 18] | 184 mg/kg × 2 | 0.59 mg/kg × 2 | > 600 mg/kg | 1.38 mg/kg × 2 | 4 µg/mL (≈ 2.28 µM) | 4 µg/mL (≈ 2.28 µM) | 0.5 µg/mL (≈ 0.285 µM) |  | 2 µg/mL (≈ 1.14 µM) | 32 µg/mL (≈ 18.2 µM) | 8 µg/mL (≈ 4.56 µM) | 2 µg/mL (≈ 1.14 µM) | 2 µg/mL (≈ 1.14 µM) |
| CCCCCCCCCCCC(=O)NCCCCC(=O)N[C@@H](Cc1c[nH]c2ccccc12)C(=O)N[C@H](CC(N)=O)C(=O)N[C@@H](CC(=O)O)C(=O)N[C@@H]1C(=O)NCC(=O)N[C@@H](CCCN)C(=O)N[C@@H](CC(=O)O)C(=O)N[C@H](C)C(=O)N[C@@H](CC(=O)O)C(=O)NCC(=O)N[C@H](CO)C(=O)N[C@@H]([C@H](C)CC(=O)O)C(=O)N[C@@H](CC(=O)c2ccccc2N)C(=O)O[C@@H]1C [Compound 2] | 117 mg/kg × 2 |  | > 600 mg/kg | 0.65 mg/kg × 2 and 0.93 mg/kg × 2 | 4 µg/mL (≈ 2.29 µM) | 4 µg/mL (≈ 2.29 µM) | 1 µg/mL (≈ 0.572 µM) | 4 µg/mL (≈ 2.29 µM) | 4 µg/mL (≈ 2.29 µM) | 32 µg/mL (≈ 18.3 µM) | 8 µg/mL (≈ 4.58 µM) | 2 µg/mL (≈ 1.14 µM) | 4 µg/mL (≈ 2.29 µM) |
| CCCCCCCCCCCC(=O)N[C@@H](Cc1c[nH]c2ccccc12)C(=O)N[C@@H](Cc1c[nH]c2ccccc12)C(=O)N[C@H](CC(N)=O)C(=O)N[C@@H](CC(=O)O)C(=O)N[C@@H]1C(=O)NCC(=O)N[C@@H](CCCN)C(=O)N[C@@H](CC(=O)O)C(=O)N[C@H](C)C(=O)N[C@@H](CC(=O)O)C(=O)NCC(=O)N[C@H](CO)C(=O)N[C@@H]([C@H](C)CC(=O)O)C(=O)N[C@@H](CC(=O)c2ccccc2N)C(=O)O[C@@H]1C [Compound 24] | > 200 mg/kg × 2 |  | 450 mg/kg | 2.3 mg/kg × 2 | 4 µg/mL (≈ 2.18 µM) | 4 µg/mL (≈ 2.18 µM) | 2 µg/mL (≈ 1.09 µM) | 1 µg/mL (≈ 0.545 µM) | 1 µg/mL (≈ 0.545 µM) | 16 µg/mL (≈ 8.72 µM) | 4 µg/mL (≈ 2.18 µM) | 4 µg/mL (≈ 2.18 µM) | 2 µg/mL (≈ 1.09 µM) |
| CCCCCCCCCCCC(=O)Nc1cc(Cl)cc(C(=O)N[C@@H](Cc2c[nH]c3ccccc23)C(=O)N[C@H](CC(N)=O)C(=O)N[C@@H](CC(=O)O)C(=O)N[C@@H]2C(=O)NCC(=O)N[C@@H](CCCN)C(=O)N[C@@H](CC(=O)O)C(=O)N[C@H](C)C(=O)N[C@@H](CC(=O)O)C(=O)NCC(=O)N[C@H](CO)C(=O)N[C@@H]([C@H](C)CC(=O)O)C(=O)N[C@@H](CC(=O)c3ccccc3N)C(=O)O[C@@H]2C)c1Cl [Compound 7] | > 200 mg/kg × 2 | 0.23 mg/kg × 2 | 200 mg/kg | 19 mg/kg × 2 | 2 µg/mL (≈ 1.09 µM) | 2 µg/mL (≈ 1.09 µM) | 1 µg/mL (≈ 0.544 µM) | 0.125 µg/mL (≈ 0.0681 µM) | 0.5 µg/mL (≈ 0.272 µM) | 2 µg/mL (≈ 1.09 µM) | 2 µg/mL (≈ 1.09 µM) | 2 µg/mL (≈ 1.09 µM) | 1 µg/mL (≈ 0.544 µM) |
| CCCCCCCCCCCC(=O)N[C@H](Cc1ccccc1)C(=O)N[C@@H](Cc1c[nH]c2ccccc12)C(=O)N[C@H](CC(N)=O)C(=O)N[C@@H](CC(=O)O)C(=O)N[C@@H]1C(=O)NCC(=O)N[C@@H](CCCN)C(=O)N[C@@H](CC(=O)O)C(=O)N[C@H](C)C(=O)N[C@@H](CC(=O)O)C(=O)NCC(=O)N[C@H](CO)C(=O)N[C@@H]([C@H](C)CC(=O)O)C(=O)N[C@@H](CC(=O)c2ccccc2N)C(=O)O[C@@H]1C [Compound 1] | > 200 mg/kg × 2 | < 0.25 mg/kg × 2 and 0.21 mg/kg × 2 | 250 mg/kg | 1.4 mg/kg × 2 and 2.05 mg/kg × 2 | 2 µg/mL (≈ 1.11 µM) | 1 µg/mL (≈ 0.557 µM) | 0.125 µg/mL (≈ 0.0696 µM) |  | 0.5 µg/mL (≈ 0.278 µM) | 1 µg/mL (≈ 0.557 µM) | 0.5 µg/mL (≈ 0.278 µM) | 1 µg/mL (≈ 0.557 µM) | 0.5 µg/mL (≈ 0.278 µM) |
| CCCCCCCCCCCC(=O)N[C@@H](Cc1ccccc1)C(=O)N[C@@H](Cc1c[nH]c2ccccc12)C(=O)N[C@H](CC(N)=O)C(=O)N[C@@H](CC(=O)O)C(=O)N[C@@H]1C(=O)NCC(=O)N[C@@H](CCCN)C(=O)N[C@@H](CC(=O)O)C(=O)N[C@H](C)C(=O)N[C@@H](CC(=O)O)C(=O)NCC(=O)N[C@H](CO)C(=O)N[C@@H]([C@H](C)CC(=O)O)C(=O)N[C@@H](CC(=O)c2ccccc2N)C(=O)O[C@@H]1C [Compound 8] | 150 mg/kg × 2 | 0.32 mg/kg × 2 | 250 mg/kg | 2.35 mg/kg × 2 | 1 µg/mL (≈ 0.557 µM) | 0.5 µg/mL (≈ 0.278 µM) | 0.25 µg/mL (≈ 0.139 µM) | 0.125 µg/mL (≈ 0.0696 µM) | 0.25 µg/mL (≈ 0.139 µM) | 1 µg/mL (≈ 0.557 µM) | 0.25 µg/mL (≈ 0.139 µM) | 1 µg/mL (≈ 0.557 µM) | 0.25 µg/mL (≈ 0.139 µM) |
| CCCCCCCC(=O)N[C@@H](Cc1ccccc1)C(=O)N[C@@H](Cc1c[nH]c2ccccc12)C(=O)N[C@H](CC(N)=O)C(=O)N[C@@H](CC(=O)O)C(=O)N[C@@H]1C(=O)NCC(=O)N[C@@H](CCCN)C(=O)N[C@@H](CC(=O)O)C(=O)N[C@H](C)C(=O)N[C@@H](CC(=O)O)C(=O)NCC(=O)N[C@H](CO)C(=O)N[C@@H]([C@H](C)CC(=O)O)C(=O)N[C@@H](CC(=O)c2ccccc2N)C(=O)O[C@@H]1C [Compound 17] | > 200 mg/kg × 2 | 1.48 mg/kg × 2 | 450 mg/kg | 2.58 mg/kg × 2 | 8 µg/mL (≈ 4.6 µM) | 8 µg/mL (≈ 4.6 µM) | 2 µg/mL (≈ 1.15 µM) |  | 4 µg/mL (≈ 2.3 µM) | 128 µg/mL (≈ 73.6 µM) | 32 µg/mL (≈ 18.4 µM) | 8 µg/mL (≈ 4.6 µM) | 8 µg/mL (≈ 4.6 µM) |
| CCCCCCCCCCC(=O)N[C@@H](Cc1ccccc1)C(=O)N[C@@H](Cc1c[nH]c2ccccc12)C(=O)N[C@H](CC(N)=O)C(=O)N[C@@H](CC(=O)O)C(=O)N[C@@H]1C(=O)NCC(=O)N[C@@H](CCCN)C(=O)N[C@@H](CC(=O)O)C(=O)N[C@H](C)C(=O)N[C@@H](CC(=O)O)C(=O)NCC(=O)N[C@H](CO)C(=O)N[C@@H]([C@H](C)CC(=O)O)C(=O)N[C@@H](CC(=O)c2ccccc2N)C(=O)O[C@@H]1C [Compound 20] | > 200 mg/kg × 2 | 0.35 mg/kg × 2 | 400 mg/kg | 1.25 mg/kg × 2 | 2 µg/mL (≈ 1.12 µM) | 2 µg/mL (≈ 1.12 µM) | 0.125 µg/mL (≈ 0.0701 µM) |  | 0.5 µg/mL (≈ 0.281 µM) | 4 µg/mL (≈ 2.24 µM) | 2 µg/mL (≈ 1.12 µM) | 2 µg/mL (≈ 1.12 µM) | 0.5 µg/mL (≈ 0.281 µM) |
